From article PMC5469811, “Identification of GXXXXG motif in Chrysophsin-1 and its implication in the design of analogs with cell-selective antimicrobial and anti-endotoxin activities” (Scientific Reports, 2017)
In brackets after ≈: the same amount, converted by molar mass. Read-outs that look alike come from different tables or passages of the source. One block for each compound: values may come before it. Residues, ends and D or L forms follow the SMILES beside them.

Experiments:
[1] = tested on: Klebsiella pneumoniae (ATCC 27736); assay: microbe, parasite or virus in culture; type: cell-based; settings: read-out: Minimum inhibitory concentration (MIC)
Experimental: (§1) Antibacterial assay against various Gram-positive and Gram-negative strains of bacteria was performed by the serial two-fold dilution method according to the previously reported procedure, [36]. The antibacterial assays were repeated thrice and the averages of these MIC values were reported.

[2] = tested on: Staphylococcus aureus (BAA-44)MDR; assay: microbe, parasite or virus in culture; type: cell-based; settings: BAA44; Staphylococcus aureus (BAA-44) MDR; averages of three repeats; read-out: Minimum inhibitory concentration (MIC)
Experimental: as §1

[3] = tested on: Staphylococcus aureus (ATCC 700698 MRSA); assay: microbe, parasite or virus in culture; type: cell-based; settings: read-out: Minimum inhibitory concentration (MIC)
Experimental: as §1

[4] = tested on: Staphylococcus aureus (ATCC 33592) Methicillin resistant Genatmicin resistant; assay: microbe, parasite or virus in culture; type: cell-based; settings: read-out: Minimum inhibitory concentration (MIC)
Experimental: as §1

[5] = tested on: Staphylococcus aureus (ATCC 700699 MRSA); assay: microbe, parasite or virus in culture; type: cell-based; settings: read-out: Minimum inhibitory concentration (MIC)
Experimental: as §1

[6] = tested on: Staphylococcus aureus (ATCC 29213); assay: microbe, parasite or virus in culture; type: cell-based; settings: read-out: Minimum inhibitory concentration (MIC)
Experimental: as §1

[7] = tested on: Escherichia coli (ATCC 9637); assay: microbe, parasite or virus in culture; type: cell-based; settings: read-out: Minimum inhibitory concentration (MIC)
Experimental: as §1

[8] = tested on: Escherichia coli (ATCC 25922); assay: microbe, parasite or virus in culture; type: cell-based; settings: read-out: Minimum inhibitory concentration (MIC)
Experimental: as §1

[9] = tested on: Staphylococcus aureus (ATCC 25923); assay: microbe, parasite or virus in culture; type: cell-based; settings: read-out: Minimum inhibitory concentration (MIC)
Experimental: as §1

[10] = tested on: Pseudomonas aeruginosa (ATCC BAA-427); assay: microbe, parasite or virus in culture; type: cell-based; settings: read-out: Minimum inhibitory concentration (MIC)
Experimental: as §1

[11] = tested on: Bacillus subtilis (ATCC 6633); assay: microbe, parasite or virus in culture; type: cell-based; settings: read-out: Minimum inhibitory concentration (MIC)
Experimental: as §1

S. aureus (ATCC 25923) = type: cell-based, Staphylococcus aureus; settings: ATCC 25923, 1 h
Experimental: (§2) E. coli ATCC25922 was grown to 10^6 CFU/ml in fresh MH broth with various divalent and monovalent salts at their physiological concentrations. Serial dilutions of chrysophsin-1 and its variants prepared with the same MH broth were added to the E. coli ATCC 25922 suspensions. The bacteria were incubated at 37 °C in a shaking incubator for 18 h and the MIC values of individual peptides against E. coli ATCC 25922 were determined. Thermal tolerance of Chrysophsin-1 and its variants was checked by incubating the peptides at 4 °C, 60 °C and 90 °C for 1 h prior to MIC determination. The antibacterial activity in presence of serum was carried out by adding a final concentration of 10% fetal bovine serum in the assay diluents containing 0.4% BSA, 0.02% glacial acetic acid. The subsequent steps in both the experiments were consistent with the MIC determination method.

E. coli ATCC 25922 [12] = type: cell-based, Escherichia coli; settings: ATCC 25922, 18 h
Experimental: as §2

E. coli (ATCC 25922) = type: cell-based, Escherichia coli; settings: ATCC 25922, 1 h
Experimental: as §2

E. coli ATCC 25922 [13] = assay: Synergy with conventional antibiotics, checkerboard titration; type: cell-based, Escherichia coli
Experimental: The checkerboard titration method was followed to check the synergy of peptides with other antibiotics. First, 2-fold serial dilutions of the antibiotics and antimicrobial peptides were prepared. Subsequently, 50 μl each of different concentrations of antibiotics and of antimicrobial peptides was mixed and added into 100 μl of log phase bacteria culture in a 96-well plate. The plates were then incubated at 37 °C for 24 h. The fractional inhibitory concentration (FIC) index (FICI) was calculated as follows[39]: FICI=(MICofdrugAincombination)/(MICofdrugAalone)+(MICofdrugBincombination)/(MICofdrugB): FICI < 0.5 is considered to indicate synergy; 0.5 < FICI < 1.0 is considered additive; 1.0 < FICI < 4.0 is considered indifferent; and FICI > 4.0 is considered antagonism.

[14] = tested on: Sporothrix schenckii (Patient isolates); assay: microbe, parasite or virus in culture; type: cell-based; settings: 48 h; read-out: Minimum inhibitory concentration (MIC)
Cryptococcus neoformans = assay: microbe, parasite or virus in culture; type: cell-based; settings: 72 h; read-out: Minimum inhibitory concentration (MIC)
Experimental: (§3) The anti- fungal activity of peptides was performed according to the standard micro broth dilution technique as per NCCLS guidelines. These plates were incubated in a moist chamber at 35 °C, and an absorbance at 492 nm was recorded on a VersaMax microplate reader after 48 h for C. albicans ATCC 10231 and C. parapsilosis ATCC 22019 and 72 h for C. neoformans.

[15] = tested on: Candida parapsilosis (ATCC 22019); assay: microbe, parasite or virus in culture; type: cell-based; settings: ATCC 22019, 48 h; read-out: Minimum inhibitory concentration (MIC)
Experimental: as §3

[16] = tested on: Candida albicans (ATCC 10231); assay: microbe, parasite or virus in culture; type: cell-based; settings: ATCC 10231, 48 h; read-out: Minimum inhibitory concentration (MIC)
Experimental: as §3

MIC ([1]; ATCC27736, Klebsiella pneumoniae (ATCC 27736), averages of three repeats): 1.35 µM (≈ 0.645 µg/mL)
MIC [2]: > 86.8 µM
MIC ([3]; Staphylococcus aureus (ATCC 700698 MRSA), averages of three repeats): > 86.8 µM
MIC ([4]; ATCC33592, Staphylococcus aureus (ATCC 33592), methicillin and gentamicin resistant, averages of three repeats): > 86.8 µM
MIC ([5]; Staphylococcus aureus (ATCC 700699 MRSA), averages of three repeats): > 86.8 µM
MIC ([6]; ATCC29213, Staphylococcus aureus (ATCC 29213), averages of three repeats): 1.35 µM (≈ 0.645 µg/mL)
MIC ([7]; ATCC9637, Escherichia coli (ATCC 9637), averages of three repeats): 5 µM (≈ 2.39 µg/mL)
MIC ([8]; ATCC25922, Escherichia coli (ATCC 25922), averages of three repeats): 2.5 µM (≈ 1.19 µg/mL)
MIC ([9]; ATCC25923, Staphylococcus aureus (ATCC 25923), averages of three repeats): 0.67 µM (≈ 0.32 µg/mL)
MIC ([10]; ATCCBAA427, Pseudomonas aeruginosa (ATCC BAA-427), averages of three repeats): 1.35 µM (≈ 0.645 µg/mL)
MIC ([11]; ATCC6633, Bacillus subtilis (ATCC 6633), averages of three repeats): 1.2 µM (≈ 0.573 µg/mL)
Compound: CNC(C)C1CCC(N)C(OC2C(N)CC(N)C(OC3OCC(C)(O)C(NC)C3O)C2O)O1 (centres unmarked) [Gentamicin, reference compound]

Antibacterial activity (MIC) after incubating peptide at 4 °C (S. aureus (ATCC 25923)): 3 µM
Antibacterial activity (MIC) after incubating peptide at 60 °C (S. aureus (ATCC 25923)): 33 µM
Antibacterial activity (MIC) after incubating peptide at 90 °C (S. aureus (ATCC 25923)): 33 µM
MIC ([1]; ATCC 27736): 13.6 µM (≈ 39.9 µg/mL)
MIC ([3]; ATCC 700698): 3 µM (≈ 8.79 µg/mL)
MIC ([4]; ATCC 33592): 1.6 µM (≈ 4.69 µg/mL)
MIC ([5]; ATCC 700699): 3 µM (≈ 8.79 µg/mL)
MIC ([6]; ATCC 29213): 6.8 µM (≈ 19.9 µg/mL)
MIC ([7]; ATCC 9637): 3 µM (≈ 8.79 µg/mL)
MIC ([8]; ATCC 25922): 3 µM (≈ 8.79 µg/mL)
MIC ([9]; ATCC 25923): 3 µM (≈ 8.79 µg/mL)
MIC ([10]; ATCC BAA-427): 6.8 µM (≈ 19.9 µg/mL)
MIC ([11]; ATCC 6633): 3 µM (≈ 8.79 µg/mL)
Antibacterial activity (MIC) in the presence of 10% FBS (E. coli ATCC 25922 [12]): 17.2 µM
Antibacterial activity (MIC) in the presence of FeCl3 (E. coli ATCC 25922 [12]): 4.1 µM
Antibacterial activity (MIC) in the presence of KCl (E. coli ATCC 25922 [12]): 4.3 µM
Antibacterial activity (MIC) in the presence of MgCl2 (E. coli ATCC 25922 [12]): 8.6 µM
Antibacterial activity (MIC) in the presence of NH4Cl (E. coli ATCC 25922 [12]): 4.3 µM
Antibacterial activity (MIC) in the presence of NaCl (E. coli ATCC 25922 [12]): 4.3 µM
Antibacterial activity (MIC) after incubating peptide at 4 °C (E. coli (ATCC 25922)): 3 µM
Antibacterial activity (MIC) after incubating peptide at 60 °C (E. coli (ATCC 25922)): 8.3 µM
Antibacterial activity (MIC) after incubating peptide at 90 °C (E. coli (ATCC 25922)): 17.2 µM
MIC [14]: 27.2 µM (≈ 79.7 µg/mL)
MIC (Cryptococcus neoformans): 13.6 µM (≈ 39.9 µg/mL)
MIC [15]: 13.6 µM (≈ 39.9 µg/mL)
MIC [16]: 13.6 µM (≈ 39.9 µg/mL)
Compound: CC[C@H](C)[C@H](NC(=O)[C@H](C)NC(=O)CNC(=O)[C@H](CCCCN)NC(=O)[C@@H](NC(=O)[C@H](CC(C)C)NC(=O)[C@H](Cc1c[nH]c2ccccc12)NC(=O)CNC(=O)[C@H](Cc1ccccc1)NC(=O)[C@@H](N)Cc1ccccc1)[C@@H](C)CC)C(=O)N[C@@H](Cc1c[nH]cn1)C(=O)N[C@@H](C)C(=O)NCC(=O)N[C@@H](CCCCN)C(=O)N[C@@H](C)C(=O)N[C@H](C(=O)N[C@@H](Cc1c[nH]cn1)C(=O)N1CCC[C@H]1C(=O)N[C@@H](CC(C)C)C(=O)N[C@H](C(=O)N[C@@H](Cc1c[nH]cn1)C(=O)N[C@@H](CCCNC(=N)N)C(=O)N[C@@H](CCCNC(=N)N)C(=O)N[C@@H](CCCNC(=N)N)C(=O)N[C@@H](Cc1c[nH]cn1)C(N)=O)[C@@H](C)CC)[C@@H](C)CC [Peptide G18P-Chr-1] (H-FFGWLIKGAIHAGKAIHPLIHRRRH-NH2)
interaction of peptide with chloramphenicol (by FICI) (E. coli ATCC 25922 [13]): additivity
